Measurements as given in patent US9469613B2, “(N-(cyanomethyl)-4-(2-(4-morpholinophenylamino)pyrimidin-4-yl)benzamide” (Gilead Sciences, Inc., priority 2014, dated 2016).
Structures can show the parent of a compound that is named as a salt.

Columns and labels:
[1] = Mass balance/recovery, metabolite profile, pharmacokinetics and safety of radiolabeled CYT-0387; type: in vivo, human
Method: CYT-0387 is a selective small molecule inhibitor of Janus kinase 1 and 2 (JAK1/JAK2) currently under investigation to treat myelofibrosis. This study evaluated the mass balance/recovery, metabolite profile, pharmacokinetics, and safety of radiolabeled CYT-0387 in humans.
Six healthy individuals (subjects) received a single oral dose of 200 mg CYT-0387 containing ˜100 μCi of [^14C]-CYT-0387. Blood samples were collected up to 21 days or until plasma radioactivity in 2 consecutive samples was below detection limit or urine and feces sampling was discontinued. Urine/feces samples were collected up to 21 days or until ≧90% administered dose was recovered in feces and urine and radioactivity in 2 consecutive sampling intervals were ≦1% administered dose. Plasma concentrations of CYT-0387 and metabolites were measured using LC-MS/MS and total radioactivity assessed by liquid scintillation counting. Metabolite profiling was performed in select urine, feces, and plasma samples. Safety assessments were performed throughout the study.

[2] = tested on: hepcidin production in HepG2 cells; experiment: BMP6-mediated hepcidin induction in HepG2 cells (qRT-PCR); type: cell-based; details: for hepcidin fold-change induction (normalized percentage): HepG2, 10 ng/mL BMP6 6 hours, 100% = vehicle
Description: This study characterized the effect of CYT-0387 on hepcidin production in HepG2 cells, a hepatocellular carcinoma cell line. Bone morphogenic proteins (BMPs) is shown to be involved in the transcriptional induction of hepcidin in hepatocytes by facilitating the association of constitutively active Type-II BMP receptor kinases (BMPR-kinase) with Type-I BMPR-kinase (Andriopoulos, et al. Nat Genet, 2009. 41(4): p482-7; Zhao, et al., J Clin Invest, 2013. 123(6): p2337-43).
HepG2 cells were preincubated for 2 hours with CYT-0387 (ranging from 0 μM to 10 μM) in the presence of 1% FBS then stimulated for 6 hours with 10 ng/mL of BMP6. Total RNA was isolated from the cells and analyzed for the levels of hepcidin by qRT-PCR. GUSB (glucuronidase, beta) was used as a house keeping control to normalize the levels measured by qRT-PCR. The percentage of hepcidin fold-change induction was calculated (100% is equal to hepcidin induction in vehicle treated cells) and summarized in Table 9.

[3] = tested on: phospho-SMAD1/5/8 in HepG2 cells; experiment: BMP6-mediated phospho-SMAD1/5/8 levels in HepG2 cells (immunoblot); type: cell-based; details: for phospho-SMAD1/5/8 levels (normalized percentage): HepG2, 10 ng/mL BMP6 30 minutes, 100% = vehicle
Method: HepG2 cells were preincubated for 2 hours with increasing concentrations of CYT-0387 (0.02 to 10 μM CYT387) in the presence of 1% FBS and then stimulated for 30 minutes with 10 ng/mL of BMP6. Protein was extracted from the lysed cells and analyzed using immunoblot analysis with the antibodies specific for phospho-SMAD1 (Ser463/465), phospho-SMAD5 (Ser463/465) and phospho-SMAD8 (Ser465/467) and β-actin. Raw phospho-SMAD1/5/8 levels were quantified using densitometry software (Image Studio) and normalized to β-actin levels. The percentage of phospho-SMAD1/5/8 levels was calculated (100% is equal to phospho-SMAD1/5/8 levels in vehicle treated cells stimulated with 10 ng/mL of BMP6) and summarized in Table 9.

[4] = molecular target: T1, TGFBR1 (Homo sapiens (Human), UniProt P36897); experiment: Biochemical binding assay (DiscoveRx)
[5] = molecular target: ALK2 (Acvr1) (Homo sapiens (Human), UniProt Q04771); experiment: In vitro enzyme inhibition assay (LanthaScreen); type: biochemical; details: n = 3
Method: (§1) In addition, biochemical binding assays (DiscoveRx) and in vitro enzyme inhibition assays (LanthaScreen, Life Technologies) were conducted to determine the binding affinity and inhibition activities of CYT-0387 to Type-I BMPR-kinases (ALK2, ALK3, and ALK6) were conducted. Transforming growth factor beta receptor 1 (TGFBR1, ALK5) was used as a control to determine the selectivity to Type-I BMPR-kinases.

[6] = molecular target: ALK3 (BMPR1a) (Homo sapiens (Human), UniProt P36894); experiment: In vitro enzyme inhibition assay (LanthaScreen); type: biochemical; details: n = 3
Method: as §1

[7] = molecular target: ALK6 (BMPR1B) (Homo sapiens (Human), UniProt O00238); experiment: In vitro enzyme inhibition assay (LanthaScreen); type: biochemical; details: n = 3
Method: as §1

[8] = molecular target: T1, TGFBR1; experiment: In vitro enzyme inhibition assay (LanthaScreen); type: biochemical; details: TGFBR1, n = 3
[9] = Phase 1 single dose PK study, Form II tablets vs Form I capsule, healthy subjects; details: human, in vivo
Method: Tablets comprising CYT-0387 dihydrochloride monohydrate Form II (doses equivalent to 100, 150, 200, and 300 mg of the free base) and capsules comprising CYT-0387 dihydrochloride anhydrous Form I (dose equivalent to 300 mg of the free base) were evaluated in a Phase 1, single dose study in healthy subjects.
Intensive PK and PD sampling occurred from 0.5 hour up to 36 hours post dose. Safety was monitored throughout the study. A parametric analysis of variance (ANOVA) using a mixed-effects model was used to fit to the natural logarithmic transformation of PK parameters (AUC and Cmax). The 90% confidence intervals were constructed for the ratio of geometric means of CYT-0387 dihydrochloride monohydrate Form II tablets at 100, 150, 200 and 300 mg vs CYT-0387 dihydrochloride anhydrous Form I capsule at 300 mg, using equivalence bounds of 70% to 143% for AUC and Cmax. The pharmacokinetic data is represented in Table 5.

[10] = single oral dose 200 mg, healthy subjects

T1 sequence (P36897 34-503): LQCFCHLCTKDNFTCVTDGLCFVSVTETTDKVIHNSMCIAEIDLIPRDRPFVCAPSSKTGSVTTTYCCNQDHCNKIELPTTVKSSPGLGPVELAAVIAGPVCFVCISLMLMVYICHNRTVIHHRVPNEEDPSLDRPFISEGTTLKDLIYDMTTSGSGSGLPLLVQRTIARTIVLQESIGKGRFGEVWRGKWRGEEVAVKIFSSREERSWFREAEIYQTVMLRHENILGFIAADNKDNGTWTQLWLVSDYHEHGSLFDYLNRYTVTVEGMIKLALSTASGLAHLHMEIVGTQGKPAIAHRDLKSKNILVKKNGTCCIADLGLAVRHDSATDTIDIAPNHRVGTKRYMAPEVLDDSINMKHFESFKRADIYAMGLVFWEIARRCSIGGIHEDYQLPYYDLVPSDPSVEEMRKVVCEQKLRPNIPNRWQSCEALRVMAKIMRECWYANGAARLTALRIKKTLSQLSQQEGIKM
Sequence of ALK3 (BMPR1a) (P36894 24-532): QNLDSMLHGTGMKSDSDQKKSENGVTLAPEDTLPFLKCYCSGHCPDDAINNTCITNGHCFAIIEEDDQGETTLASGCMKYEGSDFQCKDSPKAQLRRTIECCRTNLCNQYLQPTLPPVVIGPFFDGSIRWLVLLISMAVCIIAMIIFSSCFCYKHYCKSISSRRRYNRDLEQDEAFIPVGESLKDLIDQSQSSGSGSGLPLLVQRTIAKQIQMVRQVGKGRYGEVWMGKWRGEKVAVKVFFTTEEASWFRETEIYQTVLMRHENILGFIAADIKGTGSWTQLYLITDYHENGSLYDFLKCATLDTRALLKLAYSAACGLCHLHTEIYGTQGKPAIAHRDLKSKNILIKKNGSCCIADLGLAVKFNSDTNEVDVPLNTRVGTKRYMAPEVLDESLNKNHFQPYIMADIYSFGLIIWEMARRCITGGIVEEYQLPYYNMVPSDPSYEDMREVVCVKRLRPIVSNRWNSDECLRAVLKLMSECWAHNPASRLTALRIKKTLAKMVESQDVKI
Sequence of ALK6 (BMPR1B) (O00238 14-502): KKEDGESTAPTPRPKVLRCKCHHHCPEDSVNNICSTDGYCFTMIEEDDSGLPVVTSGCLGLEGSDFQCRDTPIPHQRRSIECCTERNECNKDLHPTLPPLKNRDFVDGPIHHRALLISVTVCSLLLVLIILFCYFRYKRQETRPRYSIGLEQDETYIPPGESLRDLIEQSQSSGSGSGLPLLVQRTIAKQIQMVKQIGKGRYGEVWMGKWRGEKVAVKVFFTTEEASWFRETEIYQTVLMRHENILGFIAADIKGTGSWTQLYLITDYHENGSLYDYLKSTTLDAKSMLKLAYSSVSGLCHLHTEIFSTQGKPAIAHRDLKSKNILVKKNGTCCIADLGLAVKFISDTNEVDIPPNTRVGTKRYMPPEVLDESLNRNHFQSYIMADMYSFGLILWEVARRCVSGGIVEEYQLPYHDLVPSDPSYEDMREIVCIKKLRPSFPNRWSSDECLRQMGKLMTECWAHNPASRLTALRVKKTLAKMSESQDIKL
Sequence of ALK2 (Acvr1) (Q04771 21-509): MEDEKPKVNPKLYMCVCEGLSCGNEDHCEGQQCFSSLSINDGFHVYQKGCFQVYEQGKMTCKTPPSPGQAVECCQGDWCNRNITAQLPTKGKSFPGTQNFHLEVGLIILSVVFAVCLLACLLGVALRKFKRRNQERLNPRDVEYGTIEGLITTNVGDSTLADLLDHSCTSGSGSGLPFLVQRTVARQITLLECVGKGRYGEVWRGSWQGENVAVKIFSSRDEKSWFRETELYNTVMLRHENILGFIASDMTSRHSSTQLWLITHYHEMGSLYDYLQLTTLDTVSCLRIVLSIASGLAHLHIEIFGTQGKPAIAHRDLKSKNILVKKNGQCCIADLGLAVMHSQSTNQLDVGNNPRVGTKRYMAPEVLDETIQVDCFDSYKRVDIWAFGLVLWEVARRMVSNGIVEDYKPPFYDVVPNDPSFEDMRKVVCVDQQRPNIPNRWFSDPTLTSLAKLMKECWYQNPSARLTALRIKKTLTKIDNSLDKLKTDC

In the case of `N#CCNC(=O)c1ccc(-c2ccnc(Nc3ccc(N4CCOCC4)cc3)n2)cc1` [CYT-0387, N-(cyanomethyl)-4-(2-(4-morpholinophenylamino)pyrimidin-4-yl)benzamide], the excreted in feces ([1]; feces) is reported as 12.6 % of the dose, the “recovery of radioactivity in feces” value ([1]; feces) is reported as 69.3% and the “overall recovery of radioactivity” value ([1]; feces and urine) is reported as 96.7%. For the same compound, the “share of circulating radioactivity” value ([1]; plasma) was 17.3%, the “time of maximum concentration of drug-derived radioactivity in plasma” value ([1]; postdose, single oral 200 mg [14C]-CYT-0387) was 2.5 h and the “most frequently reported AEs” value [1, 10] was “dizziness, headache, and nausea”. For the same compound, the “serious or severe adverse events” value [1, 10] was “No Grade 3 or 4 AEs, SAEs, or AEs leading to study discontinuation”, the tolerability [1, 10] was “well tolerated” and the “recovery of radioactivity in urine” value ([1]; urine) was 27.5%. For the same compound, the “effect on BMP6-mediated hepcidin induction” value ([2]; 0 μM to 10 μM, HepG2) was “dose-dependent inhibition”, the “hepcidin fold-change induction (normalized percentage)” value ([2]; 0.020 μM) was 115% and the “hepcidin fold-change induction (normalized percentage)” value ([2]; 0.039 μM) was 91%. The “hepcidin fold-change induction (normalized percentage)” value ([2]; 0.078 μM) was 74%, the “hepcidin fold-change induction (normalized percentage)” value ([2]; 0.156 μM) was 86% and the “hepcidin fold-change induction (normalized percentage)” value ([2]; 0.313 μM) was 89%. The “hepcidin fold-change induction (normalized percentage)” value ([2]; 0.625 μM) was 45%, the “hepcidin fold-change induction (normalized percentage)” value ([2]; 1.25 μM) was 28% and the “hepcidin fold-change induction (normalized percentage)” value ([2]; 2.5 μM) was 6%. The “hepcidin fold-change induction (normalized percentage)” value ([2]; 5.0 μM) was −4%, the “hepcidin fold-change induction (normalized percentage)” value ([2]; 10.0 μM) was −3% and the “phospho-SMAD1/5/8 levels (normalized percentage)” value ([3]; 0.020 μM) was 83%. The “phospho-SMAD1/5/8 levels (normalized percentage)” value ([3]; 0.039 μM) was 80%, the “phospho-SMAD1/5/8 levels (normalized percentage)” value ([3]; 0.078 μM) was 91% and the “phospho-SMAD1/5/8 levels (normalized percentage)” value ([3]; 0.156 μM) was 96%. The “phospho-SMAD1/5/8 levels (normalized percentage)” value ([3]; 0.313 μM) was 88%, the “phospho-SMAD1/5/8 levels (normalized percentage)” value ([3]; 0.625 μM) was 91% and the “phospho-SMAD1/5/8 levels (normalized percentage)” value ([3]; 1.25 μM) was 65%. For the same compound, the “phospho-SMAD1/5/8 levels (normalized percentage)” value ([3]; 2.5 μM) was 52%, the “phospho-SMAD1/5/8 levels (normalized percentage)” value ([3]; 5.0 μM) was 40% and the “phospho-SMAD1/5/8 levels (normalized percentage)” value ([3]; 10.0 μM) was 31%. The “effect on BMP6-mediated phospho-SMAD1/5/8 levels” value ([3]; 0.02 to 10 μM, HepG2) was “dose-dependent inhibition”, the Kd [4] was 670 nM and the IC50 [5] was 8 nM. It also gave an IC50 [6] of 405 nM, an IC50 [7] of 107 nM and an IC50 [8] of 205 nM.
In the case of `N#CCNC(=O)c1ccc(-c2ccnc(Nc3ccc(N4CCOCC4)cc3)n2)cc1` [CYT-0387 Form II, N-(cyanomethyl)-4-(2-(4-morpholinophenylamino)pyrimidin-4-yl)benzamide dihydrochloride monohydrate Form II], the “bioavailability compared to CYT-0387 dihydrochloride anhydrous Form I and CYT-0387 free base” value [9] is reported as “increased bioavailability”.
